From BigSolDB 2.1

Cl.N=C(N)Nc1ccc(C(=O)O)cc1
Details | solubility (mole fraction)
in ethanol, 294.95 K | 0.00291
in ethanol, 300.05 K | 0.00316
in ethanol, 305.95 K | 0.00343
in ethanol, 310.25 K | 0.00387
in ethanol, 315.25 K | 0.0042
in ethanol, 320.25 K | 0.00478
in ethanol, 325.55 K | 0.00514
in ethanol, 330.65 K | 0.00558
in isopropanol, 296.35 K | 0.0008
in isopropanol, 301.75 K | 0.00106
in isopropanol, 307.55 K | 0.00127
in isopropanol, 312.95 K | 0.00149
in isopropanol, 317.35 K | 0.00158
in isopropanol, 321.35 K | 0.0017
in isopropanol, 325.15 K | 0.00186
in isopropanol, 328.25 K | 0.00201
in methanol, 297.95 K | 0.0118
in methanol, 302.45 K | 0.0128
in methanol, 307.45 K | 0.0143
in methanol, 312.95 K | 0.0155
in methanol, 317.45 K | 0.017
in methanol, 321.25 K | 0.0181
in methanol, 324.85 K | 0.0192
in methanol, 328.55 K | 0.0203
in n-butanol, 293.25 K | 0.00103
in n-butanol, 296.85 K | 0.00124
in n-butanol, 300.05 K | 0.00137
in n-butanol, 303.15 K | 0.00149
in n-butanol, 307.55 K | 0.00163
in n-butanol, 314.75 K | 0.00182
in n-butanol, 320.15 K | 0.00194
in n-butanol, 327.15 K | 0.00216
in n-pentanol, 292.05 K | 0.00042
in n-pentanol, 296.55 K | 0.00071
in n-pentanol, 301.75 K | 0.0008
in n-pentanol, 310.05 K | 0.00096
in n-pentanol, 316.75 K | 0.00103
in n-pentanol, 322.95 K | 0.00114
in n-pentanol, 327.95 K | 0.00121
in n-pentanol, 334.15 K | 0.00136
in n-propanol, 295.05 K | 0.00368
in n-propanol, 300.75 K | 0.00436
in n-propanol, 305.75 K | 0.00495
in n-propanol, 309.95 K | 0.00564
in n-propanol, 314.55 K | 0.00633
in n-propanol, 319.35 K | 0.00716
in n-propanol, 322.85 K | 0.00753
in n-propanol, 327.75 K | 0.00815
in water, 298.05 K | 0.00532
in water, 304.55 K | 0.00685
in water, 309.95 K | 0.00884
in water, 314.85 K | 0.0108
in water, 318.55 K | 0.0129
in water, 323.55 K | 0.0155
in water, 328.85 K | 0.018
in water, 333.65 K | 0.0218
